Data published in ChEMBL document CHEMBL6127119 (J Med Chem, 2024).
Values after ≈ are worked out from the molar mass of the structure shown. Active and inactive are the calls of the source. The calls are words filed in the database; no cut-off is given here.

Tests used:
[1] = system: Enterococcus faecium; assay: Antibacterial activity against vancomycin-resistant Enterococcus faecium harboring VanM phenotype incubated for 16 to 24 hrs by CLSI based broth microdilution method; type: functional; conditions: time 16-24 hrs
[2] = system: Klebsiella pneumoniae; assay: Antibacterial activity against Klebsiella pneumoniae clinical isolate incubated for 16 to 24 hrs by CLSI based broth microdilution method; type: functional; conditions: time 16-24 hrs
[3] = system: Staphylococcus aureus; assay: Induction of drug resistance in vancomycin-sensitive Staphylococcus aureus MRSA252 assessed as fold increase in MIC measured after 16 days of serial passages by broth microdilution method; type: functional; conditions: time 16 day
[4] = system: Staphylococcus aureus; assay: Antibacterial activity against methicillin-susceptible Staphylococcus aureus incubated for 16 to 24 hrs by CLSI based broth microdilution method; type: functional; conditions: time 16-24 hrs
[5] = system: Enterococcus faecium; assay: Antibacterial activity against vancomycin-resistant Enterococcus faecium harboring VanB phenotype incubated for 16 to 24 hrs by CLSI based broth microdilution method; type: functional; conditions: time 16-24 hrs
[6] = system: Escherichia coli; assay: Antibacterial activity against Escherichia coli AB1157 incubated for 16 to 24 hrs by CLSI based broth microdilution method; type: functional; conditions: time 16-24 hrs
[7] = system: Acinetobacter baumannii; assay: Antibacterial activity against Carbapenem-resistant Acinetobacter baumannii clinical isolate incubated for 16 to 24 hrs by CLSI based broth microdilution method; type: functional; conditions: time 16-24 hrs
[8] = system: Staphylococcus aureus; assay: Antibacterial activity against vancomycin-intermediate Staphylococcus aureus incubated for 16 to 24 hrs by CLSI based broth microdilution method; type: functional; conditions: time 16-24 hrs
[9] = system: Pseudomonas aeruginosa; assay: Antibacterial activity against Pseudomonas aeruginosa PAO1 incubated for 16 to 24 hrs by CLSI based broth microdilution method; type: functional; conditions: time 16-24 hrs
[10] = system: Enterococcus faecium; assay: Antibacterial activity against vancomycin-resistant Enterococcus faecium harboring VanA phenotype incubated for 16 to 24 hrs by CLSI based broth microdilution method; type: functional; conditions: time 16-24 hrs
[11] = system: HEK-293T; assay: Cytotoxicity against HEK293T cells at 100 ug/ml incubated for 72 hrs by MTT assay; type: toxicity, cell-based; conditions: human, dose 100 µg/ml
[12] = system: HEK-293T; assay: Cytotoxicity against HEK293T cells upto […] incubated for 72 hrs by MTT assay; type: toxicity, cell-based; conditions: human
[13] = AUClast in CD-1 mouse at 10 mg/kg, iv measured for 24 hrs by UPLC analysis; type: ADME, organism-based; conditions: in vivo
[14] = Clearance in CD-1 mouse at 10 mg/kg, iv measured for 24 hrs by UPLC analysis; type: ADME, organism-based; conditions: in vivo
[15] = system: Staphylococcus aureus; assay: Induction of cytoplasmic membrane permeabilization in methicillin-resistant Staphylococcus aureus MRSA252 at […] measured for 40 mins by PI/NPN staining based analysis; type: functional, organism-based; conditions: dose 128.0 µg/ml
[16] = Toxicity in BALB/c mouse infected with methicillin-resistant Staphylococcus aureus MRSA252 assessed as survival rate at 10 mg/kg, iv for 7 days; type: organism-based; conditions: in vivo, 168 h, time 7 day
[17] = AUC (infinity) in CD-1 mouse at 10 mg/kg, iv measured for 24 hrs by UPLC analysis; type: ADME, organism-based; conditions: in vivo
[18] = Half life in CD-1 mouse at 10 mg/kg, iv measured for 24 hrs by UPLC analysis; type: ADME, organism-based; conditions: in vivo
[19] = Volume of distribution at steady state in CD-1 mouse at 10 mg/kg, iv measured for 24 hrs by UPLC analysis; type: ADME, organism-based; conditions: in vivo, read-out: Vdss
[20] = system: Staphylococcus aureus; assay: Antibacterial activity against Staphylococcus aureus Mu50 assessed as fold decrease in MIC at 1:1 ratio of compound and Ac2KAA at […] incubated for 16 to 24 hrs by absorbance based assay relative to control; type: functional; conditions: dose 128 µg/ml; time 16-24 hrs
[21] = system: Staphylococcus aureus; assay: Post-antibiotic effect in Staphylococcus aureus MRSA252 assessed as change in bacterial titer at 20 times measured after 2 hrs; type: functional
[22] = system: Staphylococcus aureus; assay: Post-antibiotic effect in Staphylococcus aureus MRSA252 assessed as time of effect at 10 to 20 times; type: functional
[23] = system: Enterococcus faecalis; assay: Induction of inner membrane permeabilization in Enterococcus faecalis ATCC29212 at […] measured for 20 mins by DiSC3(5) staining based analysis; type: functional, organism-based; conditions: dose 128.0 µg/ml
[24] = system: Staphylococcus aureus; assay: Antibacterial activity against Staphylococcus aureus Mu50 at 1:1 ratio of compound and Ac2KAA at […] incubated for 16 to 24 hrs by absorbance based assay; type: functional
[25] = Toxicity in BALB/c mouse infected with methicillin-resistant Staphylococcus aureus MRSA252 assessed as survival rate at 20 mg/kg, iv for 7 days; type: organism-based; conditions: in vivo, 168 h, time 7 day
[26] = MRT (infinity) in CD-1 mouse at 10 mg/kg, iv measured for 24 hrs by UPLC analysis; type: ADME, organism-based; conditions: in vivo
[27] = system: Staphylococcus aureus; assay: Post-antibiotic effect in Staphylococcus aureus MRSA252 assessed as change in bacterial titer at 10 times measured after 2 hrs; type: functional

Row | SMILES | MIC [1] [µg/mL] | MIC [2] [µg/mL] | fold change (FC) [3] | MIC [4] [µg/mL] | MIC [5] [µg/mL] | MIC [6] [µg/mL] | MIC [7] [µg/mL] | MIC [8] [µg/mL] | MIC [9] [µg/mL] | MIC [10] [µg/mL] | also measured
1 | CCCCCCCCCC(=O)N[C@@H](Cc1c[nH]c2ccccc12)C(=O)N[C@@H](CC(N)=O)C(=O)N[C@@H](CC(=O)O)C(=O)N[C@@H]1C(=O)NCC(=O)N[C@@H](CCCN)C(=O)N[C@@H](CC(=O)O)C(=O)N[C@H](C)C(=O)N[C@@H](CC(=O)O)C(=O)NCC(=O)N[C@H](CO)C(=O)N[C@@H]([C@@H](C)CC(=O)O)C(=O)N[C@@H](CC(=O)c2ccccc2N)C(=O)O[C@@H]1C | 8 (≈ 4.94 µM) | > 128 | 8 | 2 (≈ 1.23 µM) | 8 (≈ 4.94 µM) | 128 (≈ 79 µM) | 128 (≈ 79 µM) | 4 (≈ 2.47 µM) | > 128 | 8 (≈ 4.94 µM) | 
2 | CN[C@H](CC(C)C)C(=O)N[C@H]1C(=O)N[C@@H](CC(N)=O)C(=O)N[C@H]2C(=O)N[C@H]3C(=O)N[C@H](C(=O)N[C@H](C(=O)NCCCCCCCCN)c4cc(O)cc(O)c4-c4cc3ccc4O)[C@H](O)c3ccc(c(Cl)c3)Oc3cc2cc(c3O[C@@H]2O[C@H](CO)[C@@H](O)[C@H](O)[C@H]2O[C@H]2C[C@](C)(N)[C@H](O)[C@H](C)O2)Oc2ccc(cc2Cl)[C@H]1O | 64 (≈ 40.6 µM) | > 128 |  | 1 (≈ 0.635 µM) | 16 (≈ 10.2 µM) | 64 (≈ 40.6 µM) | 128 (≈ 81.2 µM) | 2 (≈ 1.27 µM) | 128 (≈ 81.2 µM) | 64 (≈ 40.6 µM) | Activity [11]: Non-Toxic; Activity [12]: Non-Toxic
3 | CC(C)C[C@@H](N)C(=O)N[C@H]1C(=O)N[C@@H](CC(N)=O)C(=O)N[C@H]2C(=O)N[C@H]3C(=O)N[C@H](C(=O)N[C@H](C(=O)O)c4cc(O)cc(O)c4-c4cc3ccc4O)[C@H](O)c3ccc(c(Cl)c3)Oc3cc2cc(c3O[C@@H]2O[C@H](CO)[C@@H](O)[C@H](O)[C@H]2O[C@H]2C[C@](C)(N)[C@H](O)[C@H](C)O2)Oc2ccc(cc2Cl)[C@H]1O | 128 (≈ 89.2 µM) | > 128 | 4 | 0.5 (≈ 0.348 µM) | 128 (≈ 89.2 µM) | > 128 | > 128 | 2 (≈ 1.39 µM) | > 128 | > 128 | AUC(0-t) at 24 h [13]: 5210 ng·h/mL; clearance [14]: 27.3 mL/min/kg; Activity [15]: inactive; Activity [16]: 75%; AUC(0-inf) [17]: 6300 ng·h/mL; half-life [18]: 31.8 min; Vd [19]: 0.919 L/kg; fold change (FC) [20]: >32; Activity [21]: 0.2 log10CFU/ml; Time [22]: 1 h; Activity [23]: inactive; MIC [24]: > 128 µg/mL; Activity [25]: 62.5%; MRT inf [26]: 33.6 min; Activity [27]: 1 log10CFU/ml
